Experimental data reported in patent US6551774B1, “Diagnostic methods for conditions associated with elevated cellular levels of telomerase activity” (Board of Regents, The University of Texas System, priority 1992, dated 2003).

Columns and labels:
[1] = tested on: IDH4 immortalized human fibroblast cell line; experiment: IDH4 cells incubated with GTO: population doublings and TRF length (Example 12); assay type: cell-based; conditions: for population doublings in 90 days: fed every other day (control 45 PDL)
Procedure: As in Example 2, an immortalized human fibroblast cell line, IDH4, which has very short TRFs, was incubated with GTO oligonucleotide. Referring to FIGS. 15 and 16, cells were incubated in regular culture medium containing serum in the presence of 10 μM, 30 μM and 100 μM GTO. The cells were fed fresh phosphodiester GTO oligonucleotide every other day and subcultured when confluent for a total of 90 days. The cells were still growing in GTO after 90 days at all concentrations used even though they grew more slowly at the higher GTO concentrations and went through fewer population doubling (control, 45 PDL; 10 μM GTO 40 PDL; 30 μM 35 PDL; 100 μM 25 PDL). […] The control and 30 μM GTO were passaged without oligonucleotide addition for an additional 90 days (approximately 35-40 PDL). As is illustrated in FIG. 16, the TRFs slowly shorten.

[2] = tested on: MDA 157 human breast cancer cells; experiment: Proliferation of MDA 157 cancer cells fed oligonucleotides (Example 2); assay type: cell-based
Procedure: Specifically, MDA 157 human breast cancer cells with an immortal phenotype were seeded at 10,000 cells per well in 12 well tissue culture dishes and fed medium only or medium supplemented with GTO-12 (at 1.0 μM, 0.1 μM, and 0.01 μM). […] Cells fed the GTO-12 oligonucleotide, at 1.0 μM, however, ceased to proliferate after less than 10 doubling. […] The lack of effect of the G+C mixture may reflect the CTO-12 oligonucleotide, competing with or base pairing with the GTO-12 oligonucleotide, this preventing its inhibitory effect on the cancer cell telomerase.

Tetrahymena cells [3] = experiment: Progeny formation (cycloheximide resistance) of Tetrahymena conjugated in the presence of analog; assay type: cell-based, Tetrahymena thermophila; conditions: for # CHX-R: number of cycloheximide-resistant wells; for irreversible disruption of macronuclear development: analog present during conjugation
Procedure: For analysis of cycloheximide (CHX) sensitivity of cells conjugated in the presence of analog, 50 ml cultures of each cell type were grown overnight in 2% PPYS, starved in Dryl's for 18 hours, mated (5×10^5 cells/ml) for 6 hours, then analog was added. Cells were allowed to complete mating in the presence of the analog. Twenty-four hours after mixing, cells were diluted in Dryl's solution, counted and plated at 1 cell per well of 96-well plates in 1% PPYS without analog. Cells were grown for 4 days in a humid chamber at 30° C., without shaking. Cells were then replica plated into 1% PPYS plus 15 μg/ml cycloheximide, allowed to grow for four days before scoring, and percent of CHX-resistant wells was calculated. Because generation of progeny expressing the cycloheximide marker requires successful production of a new macronucleus, cells whose macronuclear development was disrupted by the analog are killed in CHX.
This process involves de novo formation of new macronuclear telomeres in the progeny cells. Macronuclear development in ciliated protozoans such as Tetrahymena involves developmentally programmed, site-specific fragmentation of germline chromosomes into linear subchromosomes, whose ends are healed by de novo addition of telomeres. […] Because of the immediate requirement for telomere addition to fragmented DNA, it is possible that the latter process might be more sensitive to telomerase inhibition than telomere maintenance during vegetative growth. To test whether nucleoside analogs cause inhibition of macronuclear development due to a disruption of telomere formation, we mated two strains of Tetrahymena which are sensitive to cycloheximide, but whose progeny after mating are resistant to cycloheximide. Synchronized mated cells were treated with AZT at concentrations ranging from 10 μM to 5 mM for a period beginning just prior to when macronuclear development begins and continuing during macronuclear development (the period 6-24 hours after mating was initiated). […] In attempts to maximize the effect of AZT, cells were either refed at 6 hrs with 2% PPYS or Isobroth, or starved until 24 hrs (the duration of the AZT treatment). Such starvation arrests macronuclear development at an intermediate stage. When refed, macronuclear development would then be forced to proceed in the presence of the AZT. Control, unmated parental cells were also plated and exposed to drug.

[4] = molecular target: T1, human telomerase obtained from the tumor cell line 296 (Homo sapiens, UniProt O14746); experiment: Inhibition of human telomerase from a tumor cell line; assay type: biochemical
T1 construct: human telomerase obtained from the tumor cell line 296; endogenous in cells; host or cells: tumor cell line 296 (so in the source)
T1 sequence (O14746 whole entry): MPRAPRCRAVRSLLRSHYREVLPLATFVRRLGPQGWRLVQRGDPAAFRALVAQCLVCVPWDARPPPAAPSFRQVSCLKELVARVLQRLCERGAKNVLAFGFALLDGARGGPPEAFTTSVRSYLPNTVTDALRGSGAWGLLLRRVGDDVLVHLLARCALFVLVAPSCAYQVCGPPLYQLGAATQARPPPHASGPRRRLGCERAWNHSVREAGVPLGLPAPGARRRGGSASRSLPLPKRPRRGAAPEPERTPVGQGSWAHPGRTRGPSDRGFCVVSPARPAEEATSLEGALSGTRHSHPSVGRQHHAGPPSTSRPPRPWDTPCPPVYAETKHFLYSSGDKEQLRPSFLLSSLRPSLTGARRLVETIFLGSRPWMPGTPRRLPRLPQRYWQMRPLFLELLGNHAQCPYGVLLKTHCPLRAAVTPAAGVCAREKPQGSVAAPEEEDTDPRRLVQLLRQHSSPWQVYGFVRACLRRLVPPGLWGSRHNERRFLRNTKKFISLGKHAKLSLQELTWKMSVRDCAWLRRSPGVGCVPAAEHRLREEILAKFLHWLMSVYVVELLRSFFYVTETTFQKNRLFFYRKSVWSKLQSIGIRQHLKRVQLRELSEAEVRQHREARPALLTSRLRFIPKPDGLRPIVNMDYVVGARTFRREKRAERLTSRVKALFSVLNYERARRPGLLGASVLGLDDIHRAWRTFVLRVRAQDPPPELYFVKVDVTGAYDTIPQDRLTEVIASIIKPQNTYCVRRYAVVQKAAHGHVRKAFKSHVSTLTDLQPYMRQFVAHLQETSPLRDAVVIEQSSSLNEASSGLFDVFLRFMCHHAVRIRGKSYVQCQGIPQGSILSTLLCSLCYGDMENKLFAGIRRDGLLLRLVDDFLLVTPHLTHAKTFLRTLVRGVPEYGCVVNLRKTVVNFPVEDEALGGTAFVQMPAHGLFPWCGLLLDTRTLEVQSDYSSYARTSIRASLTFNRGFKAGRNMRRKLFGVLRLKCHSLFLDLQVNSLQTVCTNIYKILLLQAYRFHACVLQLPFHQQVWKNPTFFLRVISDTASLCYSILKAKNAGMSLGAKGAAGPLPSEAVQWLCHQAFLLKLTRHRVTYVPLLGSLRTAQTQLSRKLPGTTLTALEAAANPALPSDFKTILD
T1 sequence (O60832 whole entry partner): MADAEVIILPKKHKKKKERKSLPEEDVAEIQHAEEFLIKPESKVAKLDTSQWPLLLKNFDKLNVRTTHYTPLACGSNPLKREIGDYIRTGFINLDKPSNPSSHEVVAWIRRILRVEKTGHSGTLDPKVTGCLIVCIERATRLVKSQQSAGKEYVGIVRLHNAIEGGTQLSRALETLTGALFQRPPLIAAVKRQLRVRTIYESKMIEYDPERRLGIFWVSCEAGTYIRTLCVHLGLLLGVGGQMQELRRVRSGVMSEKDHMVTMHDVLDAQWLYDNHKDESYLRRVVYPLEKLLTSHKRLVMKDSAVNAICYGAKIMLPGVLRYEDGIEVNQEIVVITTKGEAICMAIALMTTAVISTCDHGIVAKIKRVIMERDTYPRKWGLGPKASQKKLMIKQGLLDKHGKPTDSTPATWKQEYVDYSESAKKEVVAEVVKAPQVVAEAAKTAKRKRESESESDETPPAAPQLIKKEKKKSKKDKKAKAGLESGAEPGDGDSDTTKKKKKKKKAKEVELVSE
T1 sequence (Q9NPE3 whole entry partner): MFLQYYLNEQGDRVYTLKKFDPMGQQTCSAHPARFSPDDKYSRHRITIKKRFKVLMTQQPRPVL
T1 sequence (Q9NX24 whole entry partner): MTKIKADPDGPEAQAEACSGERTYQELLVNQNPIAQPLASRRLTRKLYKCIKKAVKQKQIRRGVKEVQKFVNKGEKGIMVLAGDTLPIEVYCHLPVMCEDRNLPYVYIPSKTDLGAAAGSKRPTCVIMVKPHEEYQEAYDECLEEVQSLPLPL
T1 sequence (Q9NY12 whole entry partner): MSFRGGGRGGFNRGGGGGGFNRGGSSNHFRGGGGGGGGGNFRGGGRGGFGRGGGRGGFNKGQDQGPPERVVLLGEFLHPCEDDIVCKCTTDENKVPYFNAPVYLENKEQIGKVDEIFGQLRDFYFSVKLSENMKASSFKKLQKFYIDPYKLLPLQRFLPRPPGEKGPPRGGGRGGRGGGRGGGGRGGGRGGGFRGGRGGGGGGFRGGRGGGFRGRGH

[5] = tested on: lymphoma cell line JY 616; experiment: Growth of cultured JY lymphoma cells with potential telomerase inhibitors; assay type: cell-based, human; conditions: 20 μM
Procedure: The effect of the agents on telomerase activity in intact cells was then studied utilizing the lymphoma cell line JY 616 which were maintained in RPMI 1640 with […] Hepes, 10% FCS, and penicillin/streptomycin (Gibco). The cells were cultured in 6-well plates (Falcon) with 5.0 ML of medium per well in duplicate. Cells were passaged every 7-10 days which corresponded to 5-7 mean population doublings (MPD), and seeded at 3×10^4 cells per well into fresh medium containing analog or control. Cell viability was monitored prior to harvest utilizing trypan blue stain (Gibco) during counting with a hemocytometer. The average ratio of stained: unstained cells (dead:alive) was […]. The intactness of the DNA was measured on a parallel gel by observing its mobility in a gel prior to digestion by a restriction enzyme.

Tetrahymena cells [6] = experiment: Growth, morphology and senescence of Tetrahymena mass-transfer cultures with nucleoside analogs; assay type: cell-based, Tetrahymena thermophila; conditions: 2% PPYS plus, mass transfer
Procedure: (§1) For analysis of macronuclear DNA from cultures containing the nucleoside analog AZT (Sigma), or controls lacking analog, at various timepoints during vegetative divisions, cells from stationary stock cultures were inoculated into 25 ml thymine-deficient Iso-sensitest broth (‘Isobroth’, Oxoid USA) in 250 ml flasks. Cultures were incubated at 30° C. with shaking (100 rpm) for 48 hours. Cells were counted and plated at 1000 cells/1.5 ml in 24-well plates (Falcon) and grown at 30° C., without shaking, for 48 hours. 5 μl of these log phase cells were used to inoculate 1 ml cultures (Isobroth) containing varied concentrations of nucleoside analog. Thereafter, every 2-4 days cells were transferred, either 5 μl per well, or 1-3 μl using a multi-pronged replicator into fresh 1 ml broth containing AZT. Remaining cells were pelleted and stored at −80° C. until processed for DNA analysis.
(§2) For analysis of macronuclear DNA from vegetative cultures containing the nucleoside analogs Ara-G (Calbiochem), ddG (Calbiochem), or ddI (Calbiochem), or controls lacking analog, stock cultures were grown overnight in 2% PPYS as described. Cells were counted and plated at 100 cells/2 ml in 2% PPYS containing varied amounts of analog, 1% DMSO (Fisher) (as a control for ddG and Ara-G), or 2% PPYS alone. Cells were replica plated into fresh medium every 2-6 days, and remaining cells were pelleted and stored at −80° C. until processed for DNA analysis.
To test whether such a phenotype could be produced by inhibitors of telomerase in Tetrahymena, duplicate log-phase cultures were grown for prolonged periods in the presence of varying concentrations of analogs. The growth and cell morphology of these cultures were monitored, and DNA was isolated at different times for telomere length analysis. […] From growth rate measurements it was calculated that the cells went through 150 to 250 cell generations in the course of this 50 day period.

Tetrahymena cells [7] = experiment: Single-cell transfer cultures of Tetrahymena with AZT or Ara-G; assay type: cell-based, Tetrahymena thermophila; conditions: 10 μM AZT; 10 μM or 1 mM Ara-G; 1 to 10 cells per well
Procedure: For analysis of vegetative growth and macronuclear DNA from single-cell cultures containing the nucleoside analogs AZT or Ara-G, SB210 (VI) cells were grown from stationary stock cultures overnight at 30° C. with shaking (100 rpm) in 50 ml 2% PPYS or Isobroth. Cells were counted and added to the appropriate medium plus analog (Ara-G to 1 mM or DMSO to 1% as control in 2% PPYS; AZT to 10 μm or 1 mM, or no addition as control in Isobroth) and plated in 96-well plates (Falcon), 100 μl per well at a density of 1 cell per well. 5 plates were prepared for each analog or control. Wells were scored for cell growth and plates were replica plated every 1-2 days (Ara-G and DMSO plates) or every 2-4 days (AZT and Isobroth control plates) to maintain approximate inoculation densities of 1-10 cells per well for each passage. Occasionally individual wells were passaged by hand (1 μl inoculated per well using a pipettor) into several blank wells, to expand the number of live wells per plate as single-cell cultures were lost over time due to low probability of being transferred at each passage. After passaging, cells were pooled, pelleted and stored at −80° C. until processed for DNA analysis.
To test whether we had missed such a subpopulation of cells, we carried out the same experiments on vegetatively dividing Tetrahymena cells in the presence and absence of drug, but in these experiments the subculturing was carried out by plating cells at an average of 1 to 10 cells per well in microtiter plate wells in the presence of 10 μM and 1 mM AZT, and 10 μM and 1 mM Ara-G. For each drug, cells were plated out in this manner for 30 consecutive days (90 to 150 cell generations) and 16 consecutive days (50 to 80 cell generations) respectively for the 10 μM and 1 mM drug concentrations. DNA was isolated at intervals from combined samplings of the wells for analysis of telomere length.

Tetrahymena cells [8] = experiment: Telomere length in vegetatively grown Tetrahymena by Southern blot; assay type: cell-based, Tetrahymena thermophila; conditions: up to 1 mM, 5 days of subculturing (15-20 cell generations), 2% PPYS
Procedure: as §1, §2
For analysis of macronuclear DNA from vegetative cultures containing d4T (Sigma) or control lacking the analog, stock cultures (SB210 VI) were grown overnight in Isobroth as described. Cells were then counted and duplicate cultures inoculated at 500 cells/5 ml Isobroth in 50 ml conical tubes, and grown at 30° C., shaking 80 rpm. 500-2000 cells were transfered to fresh broth every 2-4 days, and the remainder pelleted and stored at −80° C. until processed for DNA analysis.
Restriction digests, agarose gel electrophoresis, transfer of DNA to Nytran filters (Schleicher and Schuell), and hybridization with ^32P-nick-trapplated or random-primed probes were carried out using standard procedures (Maniatis et.al. 1989). Telomere length was analyzed as described previously for Tetrahymena [Larson 50 Cell, 477, 1987].
Telomere lengths in cells grown in the presence of the different analogs were monitored by Southern blot analysis of DNA samples extracted at a series of time points during the subculturings. The telomeres of cells grown vegetatively in 1 and 5 mM AZT in 2% PPYS medium were reproducibly shortened by up to an average of 170 base pairs compared with the control cultures grown in 2% PPYS in the absence of the drug (FIG. 21A and B). This shortening of telomeres occured in a concentration-dependent manner (FIG. 21B), with at least 50% of the maximal shortening effect occurring by 10 μM AZT, the lowest concentration tested.

[9] = 0.01 mM analog (head prints MM), first block for the analog
[10] = 0.01 mM analog, first block for the analog
[11] = 0.1 mM analog (head prints MM), first block for the analog
[12] = 0.1 mM analog, first block for the analog
[13] = 1.0 mM analog (head prints MM), first block for the analog
[14] = 1.0 mM analog, first block for the analog

5′-TTAGGGTTAGGG-3′ (listed as DNA, chemistry not given here) [GTO-12, guanidine-rich terminal oligonucleotide-12 bp]
TRF length after 90 days ([1]; 10 μM, 30 μM and 100 μM): regained TRF length in a dose dependent manner
population doublings in 90 days ([1]; 10 μM): 40 PDL
population doublings in 90 days ([1]; 30 μM): 35 PDL
population doublings in 90 days ([1]; 100 μM): 25 PDL
doublings after which cells ceased to proliferate ([2]; 1.0 μM): less than 10 doubling
proliferation phenotype ([2]; doses of less than 1.0 μM (0.1 μM, 0.01 μM)): continued replicating in an immortal phenotype

Nc1nc2c(ncn2[C@@H]2O[C@H](CO)[C@@H](O)[C@@H]2O)c(=O)[nH]1 [Ara-G]
% CHX-R (Tetrahymena cells [3]; [9]): 81%
# CHX-R (Tetrahymena cells [3]; [10]): 114
% CHX-R (Tetrahymena cells [3]; [11]): 80%
# CHX-R (Tetrahymena cells [3]; [12]): 134
% CHX-R (Tetrahymena cells [3]; [13]): 55%
% CHX-R (Tetrahymena cells [3]; 1.0 mM analog (head prints MM), second block for the analog): 59%
# CHX-R (Tetrahymena cells [3]; [14]): 89
# CHX-R (Tetrahymena cells [3]; 1.0 mM analog, second block for the analog): 51
% CHX-R (Tetrahymena cells [3]; 2.0 mM analog (head prints MM), second block for the analog): 43%
# CHX-R (Tetrahymena cells [3]; 2.0 mM analog, second block for the analog): 40
irreversible disruption of macronuclear development (Tetrahymena cells [3]): little or no irreversible disruption
inhibition of human telomerase [4]: effective inhibitors of human telomerase
cell growth [5]: slowed growth
cell doubling rate, morphology, long term viability (Tetrahymena cells [6]): no effects on cell doubling rate, morphology or long term viability
plating efficiency compared with control medium (Tetrahymena cells [7]): no changes in the plating efficiency

O=c1[nH]cnc2c1ncn2[C@H]1CC[C@@H](CO)O1 [ddI]
% CHX-R (Tetrahymena cells [3]; 0.001 mM analog (head prints MM), first block for the analog): 83%
# CHX-R (Tetrahymena cells [3]; 0.001 mM analog, first block for the analog): 59
% CHX-R (Tetrahymena cells [3]; [9]): 89%
# CHX-R (Tetrahymena cells [3]; [10]): 85
% CHX-R (Tetrahymena cells [3]; [11]): 78%
# CHX-R (Tetrahymena cells [3]; [12]): 83
% CHX-R (Tetrahymena cells [3]; [13]): 91%
# CHX-R (Tetrahymena cells [3]; [14]): 100
irreversible disruption of macronuclear development (Tetrahymena cells [3]): little or no irreversible disruption
telomere length compared with control cultures (Tetrahymena cells [8]): no changes in telomere length
